Experimental data published in patent US20230329308A1, “COMPOSITIONS COMPRISING A MINERAL SALT FOR ORAL USE” (DIFASS INTERNATIONAL S.P.A., priority 2020, published 2023).
“Also recorded” adds a separate entry of the source.

Experiments:
[1] = Comparative iron release profile, simulated gastrointestinal conditions, ICP-OES; format: physicochemical; settings: sample equivalent to 30 mg elemental iron, HCl 0.1N then pH 6.8, 37°C
Method: The release profile and bioavailability of the composition according to the invention were analysed and measured by comparison with iron sulphate (the preferred form for pharmacological treatment) using an in vitro system, under conditions simulating the gastrointestinal environment.
The tests were conducted according to methods published in the international scientific literature and internally validated.
For the measurement of the comparative release profile, amounts of the two test samples were first weighed, both equivalent to 30 mg of elemental iron. The samples were initially placed in contact with a solution of HCl (0.1N) and incubated at a temperature of 37±0.5° C. A solution of Na2HPO4 was then added to the samples to buffer the pH to a value of 6.8. Said conditions were maintained throughout the remainder of the experiment. To evaluate the release profile of the iron, the two samples were centrifuged at 10,000 rpm at pre-set time intervals such as 1, 2, 4, 6 and 24 h. At the end of centrifugation the samples were taken up and analysed to evaluate the iron release profiles. The iron determination analyses were conducted with the ICP-OES THERMO FISHER ICAP 6300.

[2] = In vitro bioavailability study, dialysis membrane method with simulated buccal, gastric and intestinal digestion; format: in vitro ADME
Method: The in vitro bioavailability study was conducted by the dialysis membrane method. Said method, by its nature, is based on the physicochemical characteristics of the environments wherein the desired substance passes from one compartment to the other, and takes no account of any active mechanisms or biological interaction. The method involves three successive simulated digestion stages: buccal digestion in the presence of amylase, gastric digestion in the presence of pepsin, and finally, intestinal digestion in the presence of pancreatin.
In order to simulate buccal digestion, suitable amounts of the test samples were placed in contact with 10 mg of amylase and 1.5 mL of PBS at pH 6.9 (10^-3 M). The resulting mixtures were inserted into dialysis membranes (Spectrum Laboratories Inc., USA, MWCO: 12-14,000 Daltons), tightly closed at each end and immersed in vials containing PBS at pH 6.9. The samples were then incubated at a temperature of 37±0.5° C. for 5 minutes.
After incubation, HCl (0.85N), pepsin and a solution of NaN3 (0.04% w/w) were added to the open membranes. The membranes were closed, placed in vials containing HCl (0.85N), and incubated at 37±0.5° C. for 2 h.
After said 2 h period, a solution of NaHCO3 (0.8 M) and pancreatin was added. The closed membranes were placed in vials containing PBS at pH 7.0, and incubated at a temperature of 37±0.5° C. for a further 4 h.
To evaluate the in vitro bioavailability of the iron, the solution contained in the vials was taken up after each digestion step, and the samples were analysed with an ICP-OES THERMO FISHER ICAP 6300.
Bioavailability is defined as the percentage of iron recovered in the bioaccessible fraction after in vitro digestion, in relation to the original undigested sample, and calculated with the equation: (bioaccessible fraction/total content)×100%.

[3] = Evaluation of organoleptic characteristics of the granulate vs iron fumarate (Example II); format: in vivo, human; settings: score 1 (intolerable) to 5 (highly tolerable); one score per participant, 4 subjects; amount equivalent to 14 mg elemental iron
Method: A portion of the granulate described in Example I and a portion of commercially available iron fumarate, both equivalent to 14 mg of elemental iron (100% of Nutrient Reference Value—EU Reg. 1169/2011) were weighed separately using known procedures.
The following trial protocol was used to evaluate the organoleptic characteristics of the two samples compared.
Each of the compositions listed in Table II above was tested on a group of 4 subjects. The inclusion criteria for admission to the test were solely ethical: the subjects had to be over the age of majority, healthy, and not suffering from any taste and/or iron metabolism alterations correlated with disorders and/or illnesses.
Each subject independently tasted first one and then the other sample of the example, maintaining a suitable time interval (at least 2 hours) between one tasting and the next, and rinsing their mouth, so that the evaluation of each administration was not influenced by the previous one.
On each tasting, the following parameters were evaluated: metallic odour and flavour, gastrointestinal tolerability, aftertaste, and staining of teeth, tongue and/or palate. […]

[4] = in words; cited from earlier work
[5] = in words; cited from earlier work; remark: listed apart in the source

SMILES: O=S(=O)([O-])[O-].[Fe+2] [Ferrous sulphate]
- Iron released ([1]; 1 h): 84.16 ± 1.07
- Iron released ([1]; 2 h): 85.22 ± 0.98
- Iron released ([1]; 4 h): 100.03 ± 0.20
- Bioaccessible fraction, buccal digestion ([2]; amylase, PBS pH 6.9, 37°C, 5 minutes): 8.61 ± 0.73
- Bioaccessible fraction, intestinal digestion ([2]; pancreatin, NaHCO3, PBS pH 7.0, 37°C, 4 h): 7.16 ± 0.41
- Bioaccessible fraction, gastric digestion ([2]; pepsin, HCl 0.85N, 37°C, 2 h): 65.81 ± 1.39

SMILES: O=C([O-])/C=C/C(=O)[O-].[Fe+2] [Sample B, Iron fumarate]
- Gastrointestinal tolerability [3]: Gastrointestinal tolerability: 5; also recorded: Gastrointestinal tolerability: 3
- Iron release compared with iron sulphate [4]: generically lower iron release than iron sulphate
- Water solubility compared with iron sulphate [5]: far less water-soluble than iron sulphate
